Reference: patent US20150150810A1, “TABLETS FOR COMBINATION THERAPY” (Gilead Sciences, Inc., priority 2009, published 2015)

Legend:
[1] = Pharmacokinetic study of fixed-dose combinations of Formula I/Formula II/Formula III/Formula IV; assay type: in vivo; conditions: mean (CV %); for Cmax / AUC: in vivo
Method: A pharmacokinetic study involving two fixed-dose combinations of the compounds of Formula I/Formula II/Formula III/Formula IV was also conducted. Doses for the fixed-dose combination of the compounds of Formula I/Formula II/Formula III/Formula IV were 150 mg/100 mg/200 mg/300 mg (Dose A) and 150 mg/150 mg/200 mg/300 mg (Dose B) respectively. Pharmacokinetic data for the compound of Formula II from the study involving the two fixed dose combinations (Dose A and Dose B) is provided in the following table.

[2] = Pharmacokinetic dose-ranging study of the compound of Formula II; assay type: in vivo; conditions: 100 mg dose
Method: A pharmacokinetic dose-ranging study involving the compound of Formula II was conducted. Doses for the compound of Formula II for the dose-ranging study included 50 mg, 100 mg and 200 mg.

[3] = Chemical stability of Formula IV in tablet combinations; assay type: physicochemical
Text: Additionally, improper combinations of the compounds of Formula I, II, III, or IV in a bilayer tablet will also compromise the chemical stability of Formula IV. For example, Formula IV in the presence of silicon dioxide from the Formula II formulation will decompose Formula IV; and Formula IV in the in the presence of sodium lauryl sulphate from the Formula I formulation will decompose Formula IV.

[4] = Dose A: 150 mg/100 mg/200 mg/300 mg, n = 43
[5] = Dose B: 150 mg/150 mg/200 mg/300 mg, n = 42
[6] = in vivo, n = 11, arithmetic mean

Structure (SMILES) | Ctau [1, 4] | Ctau [1, 5] | Cmax [1, 4] | AUC ([1]; Dose A: Formula I/II/III/IV 150 mg/100 mg/200 mg/300 mg, n = 43) | Cmax [1, 5] | AUC ([1]; Dose B: Formula I/II/III/IV 150 mg/150 mg/200 mg/300 mg, n = 42) | CL/F ([2]; n = 11, arithmetic mean) | T1/2 ([2]; n = 11, median) | AUC [2, 6] | Cmax [2, 6] | chemical stability of Formula IV ([3]; Formula I, II, III and IV combined in a mixture as mono layer tablet) | chemical stability of Formula IV ([3]; in the presence of silicon dioxide from the Formula II formulation) | chemical stability of Formula IV ([3]; in the presence of sodium lauryl sulphate from the Formula I formulation)
CC(C)c1nc(CN(C)C(=O)N[C@@H](CCN2CCOCC2)C(=O)N[C@H](CC[C@H](Cc2ccccc2)NC(=O)OCc2cncs2)Cc2ccccc2)cs1 [Formula II] | 10.8 (83.6) ng/mL | 23.3 (103) ng/mL | 855 ng/mL | 5150 ng·h/mL | 1570 ng/mL | 10400 ng·h/mL | 33.2 L/h | 3.12 h | 3440 ng·h/mL | 563 ng/mL | – | – | –
CC(C)OC(=O)OCOP(=O)(CO[C@H](C)Cn1cnc2c(N)ncnc21)OCOC(=O)OC(C)C.O=C(O)/C=C/C(=O)O [Formula IV, tenofovir disoproxil fumarate] | – | – | – | – | – | – | – | – | – | – | compromises the chemical stability | decompose | decompose
